# Source: patent US12544375B2, “Small molecule therapeutic for parkinson's disease paired with a biomarker of therapeutic activity” (The Board of Trustees of the Leland Stanford Junior …, priority 2019, dated 2026)
# Test system: healthy-1 or PD-2 fibroblasts
# Test: Peroxisome movement or distribution, EGFP-peroxisome live imaging
# Type: cell-based, human
# Details: 10 μM for 30 hrs
# Procedure: FIG. 8. Related to FIG. 2-4. Miro1 Reducer in Human Cell and Fly Models. (A) Fibroblasts from Healthy-1 and PD-2 were treated, lysed, and blotted as indicated. Band intensities are normalized to those of GAPDH from the same blots and compared to “Healthy-1, no treatment”. n=4 independent experiments. (B) Fibroblasts from PD-2 were treated and immunostained as indicated. The intensity was quantified for each cell across 264-320 cells from 3 independent experiments, compared to “no treatment”. (C) Fibroblasts were treated, immunoprecipitated (IPed) with anti-Miro1, and blotted as indicated. Similar results were observed twice. (D) Similar as in (C), fibroblasts were treated as indicated, and IPed with anti-Miro1. The GTPase activity of the IPed Miro1 protein was measured as described in Method. […] The MitoSox intensity was quantified for each cell across 106-161 cells from 3 coverslips. […] The TMRM intensity was measured for each cell across 48-60 cells from 3 independent experiments, and expressed as a fraction of the mean of “Healthy-1, no treatment”. […] The movement (the intensity of non-yellow) was quantified for each cell as described in (Tsai et al., 2014) across 22-31 cells from 3 transfections. […] (1) Left: The percentage of TH-positive iPSC-derived neurons out of total cells (Dapi-positive) is calculated after immunocytochemistry under 20× as described in FIG. 3. […]
structure (smiles),measurement,value
O=C(Nc1ccc(Nc2cc(-n3ccnc3)ncn2)cc1)Nc1cccc(F)c1 [Miro1 Reducer],peroxisome movement or distribution,did not affect
